Assay in all cases: NCI tumour cell line growth inhibition, 48 h
The subject of assay [1] is 786-0.
For assay [2], the system named is SK-OV-3.
For assay [3], the system named is IGROV-1.
Assay [4] relates to MOLT-4.
For assay [5], the system named is K562.
Assay [6] relates to HCC 2998.
The test system of assay [7] is U-251.
For assay [8], the system named is HOP-92.
Assay [9] concerns M14.
In assay [10] the test system is HCT-15.
Assay [11] relates to RPMI-8226.
Assay [12] relates to UACC-62.
Assay [13] relates to OVCAR-3.
Assay [14] deals with SNB-75.
Assay [15] has as its system Malme-3M.
Assay [16] relates to A498.

The record followed here is ChEMBL document CHEMBL1201862, “PubChem BioAssay data set” (2004).

Structures are written as SMILES.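 48-hour exposure; five concentrations; linearly interpolated endpoints. Abbreviation: GI50, concentration required for 50% inhibition of growth.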 Active and inactive are the calls of the source. No stated cut-off is given here; in the data, active = GI50 up to about 1.1 µM and inactive = higher.

For `c1ccc(-c2csc3ncn4cnnc4c23)cc1`, the GI50 in assay [1] is 55.7 µM (inactive); in assay [2] it was > 100 µM (inactive); in [3], 77.8 µM (inactive); in assay [4], 44.1 µM (inactive); in assay [5] it was > 100 µM (inactive); in [6], > 100 µM (inactive). For the same compound, the GI50 in assay [7] is > 100 µM (inactive); in assay [8], 24.6 µM (inactive); in [9], > 100 µM (inactive); in [10], 95.3 µM; in assay [11] it was 59.6 µM (inactive); in assay [12], 53.3 µM (inactive). The GI50 in assay [13] is > 100 µM (inactive); in assay [14] it was 22.3 µM (inactive).

For `CCCCCCCCCC(=O)CC(=O)c1c(O)cccc1O`, the GI50 in [1] was 18.7 µM (inactive); in assay [2], 20.5 µM (inactive); in assay [3] it was 32.3 µM (inactive); in [4], 31 µM (inactive); in assay [5], 27.7 µM (inactive); in assay [6] it was 44.6 µM (inactive). For the same compound, the GI50 was 24.9 µM (inactive) in [7]; 22 µM (inactive) in assay [9]; 25.6 µM (inactive) in [11]; 33.4 µM (inactive) in assay [12]; 29.2 µM (inactive) in [13]; 28 µM (inactive) in [14]. For the same compound, the GI50 in assay [15] is 35.2 µM (inactive).

Turning to `COc1nc2c(nc(N)n2C2OC(CO)C(O)C(O)C2O)c(=O)n1C` (stereo not given), the GI50 in assay [16], in [1], in assay [2], in assay [3], in [5] and in [6] was > 100 µM (inactive) each time. The GI50 in assay [7], in assay [8], in [9], in assay [12], in [13] and in [14] was > 100 µM (inactive) throughout. Also, the GI50 in assay [15] was > 100 µM (inactive).

With `O=C1O[C@@H](c2ccc3c(c2)OCO3)C2C(=O)O[C@@H](c3ccc4c(c3)OCO4)C12` (stereo not given in full), the GI50 in assay [16], in assay [1], in assay [2], in [3], in [4] and in [5] was > 100 µM (inactive) throughout. For the same compound, the GI50 in [6] is > 100 µM (inactive); in assay [7] it was > 100 µM (inactive); in assay [8], > 100 µM (inactive); in assay [9] it was > 100 µM (inactive); in assay [10] it was greater than 100 µM; in [11], > 100 µM (inactive). The GI50 in assay [12] is > 100 µM (inactive); in [13] it was > 100 µM (inactive); in assay [14], 83.6 µM (inactive).

With `Cc1cccc(NC(=O)CSc2nnc(-c3ccc(/N=C\c4ccc(Cl)cc4)cc3)o2)c1`, the GI50 in assay [1], in assay [2], in assay [4], in [5], in assay [7] and in [9] was > 100 µM (inactive) in each case. The GI50 in assay [10] is greater than 100 µM; in assay [11] it was > 100 µM (inactive); in assay [12], > 100 µM (inactive); in assay [14], > 100 µM (inactive); in assay [15], > 100 µM (inactive).

In the case of `CCCCCCCCCCCCOC(=S)NCCCC`, the GI50 was 20 µM (inactive) in assay [16]; 24.6 µM (inactive) in [1]; 18.7 µM (inactive) in assay [2]; 25.6 µM (inactive) in assay [3]; 15.9 µM (inactive) in [4]; 19.3 µM (inactive) in [5]. Further, the GI50 in assay [6] is 18 µM (inactive); in assay [7], 20.2 µM (inactive); in [8] it was 20 µM (inactive); in assay [9], 27.8 µM (inactive); in [10], 19.5 µM; in assay [11], 15.7 µM (inactive). Moreover, the GI50 in [12] was 16.7 µM (inactive); in [14], 30.3 µM (inactive); in [15], 26.6 µM (inactive).

`Oc1ccc(Br)cc1/C=N/c1ccc(/N=C/c2cc(Br)ccc2O)cc1`: the GI50 in assay [16], in [1], in assay [2], in assay [3], in [4] and in assay [5] was > 100 µM (inactive) each time. Further, the GI50 in assay [6] is > 100 µM (inactive); in assay [7], > 100 µM (inactive); in assay [8], > 100 µM (inactive); in assay [9], > 100 µM (inactive); in assay [10] it was greater than 100 µM; in [11] it was > 100 µM (inactive). Further, the GI50 in assay [14] and in assay [15] was > 100 µM (inactive) in each case.

With `COc1ccccc1C1C(Cl)C(=O)N1NC(=O)Cc1ccccc1` (stereo not given), the GI50 in [1] was > 100 µM (inactive); in assay [2] it was 71.4 µM (inactive); in assay [3], > 100 µM (inactive); in [4] it was 27.7 µM (inactive); in assay [5], 35.2 µM (inactive); in [6] it was 75.7 µM (inactive). Besides, the GI50 was > 100 µM (inactive) in assay [7]; > 100 µM (inactive) in assay [9]; 73.6 µM in assay [10]; 46.5 µM (inactive) in assay [11]; 83.2 µM (inactive) in [12]; > 100 µM (inactive) in [13]. In addition, the GI50 in [14] was 31.7 µM (inactive); in [15], 53.2 µM (inactive).

As for `CCOC(=O)NC(=O)c1cn(CCCCCCCCCCC(=O)NCCCN2CCN(CCCNC(=O)CCCCCCCCCCn3cc(C(=O)NC(=O)OCC)c(=O)[nH]c3=O)CC2)c(=O)[nH]c1=O`, the GI50 in [16], in assay [1], in assay [2], in [4], in assay [5] and in assay [6] was > 100 µM (inactive) in each case. The GI50 is > 100 µM (inactive) in [7]; > 100 µM (inactive) in assay [8]; > 10 µM (inactive) in assay [9]; greater than 100 µM in assay [10]; > 100 µM (inactive) in assay [12]; > 10 µM (inactive) in assay [13]. In addition, the GI50 in assay [14] and in [15] was > 100 µM (inactive) in each case.

Turning to `CC1=C(/C=C/C(C)=C/C2CC(N(C)C)=CC(=O)O2)C(C)(C)CCC1` (stereo not given), the GI50 is 14.9 µM (inactive) in [16]; 15.4 µM (inactive) in assay [1]; 16.4 µM (inactive) in [2]; 14.8 µM (inactive) in [3]; 3.2 µM (inactive) in assay [4]; 3.56 µM (inactive) in assay [5]. For the same compound, the GI50 is 13.6 µM (inactive) in [6]; 14.6 µM (inactive) in assay [7]; 16.4 µM (inactive) in assay [8]; 14.8 µM (inactive) in assay [9]; 1.37 µM (inactive) in assay [11]; 13.6 µM (inactive) in assay [12]. Besides, the figures for the GI50 in assay [13], in assay [14] and in [15] were 11.5 µM (inactive), 17.7 µM (inactive) and 14.4 µM (inactive), respectively.

In the case of `CCOC(=O)C(C)c1cc(C2(C)OCCO2)c(C)o1` (stereo not given), the GI50 in assay [1], in assay [2], in [3], in assay [4], in [5] and in [6] was > 100 µM (inactive) each time. The GI50 in assay [7] is > 100 µM (inactive); in assay [8], 8.63 µM (inactive); in [9], > 100 µM (inactive); in assay [10], greater than 100 µM; in assay [11], > 100 µM (inactive); in assay [12], > 100 µM (inactive). The GI50 was > 100 µM (inactive) in assay [13], 88.9 µM (inactive) in assay [14] and > 100 µM (inactive) in assay [15].

`COC(=O)C(CCC1(C)OCCO1)=[N+]=[N-]`: the GI50 in assay [16], in assay [1], in assay [2], in [3], in [4] and in assay [5] was > 100 µM (inactive) each time. The GI50 is > 100 µM (inactive) in assay [6]; > 100 µM (inactive) in [7]; > 100 µM (inactive) in assay [9]; greater than 100 µM in assay [10]; > 100 µM (inactive) in assay [13]; > 100 µM (inactive) in [14]. Also, the GI50 in [15] is > 100 µM (inactive).

Turning to `c1cc(C2O[C@H]3CCCN3[C@@H]2c2ccncc2)ccn1` (stereo not given in full), the GI50 in assay [16], in [1], in assay [2], in assay [3], in assay [4] and in [5] was > 100 µM (inactive) each time. The GI50 in assay [7] was > 100 µM (inactive); in assay [9], > 100 µM (inactive); in assay [10], greater than 100 µM; in assay [11], > 100 µM (inactive); in assay [12], > 100 µM (inactive); in assay [13], > 100 µM (inactive). Besides, the GI50 in assay [14] and in assay [15] was > 100 µM (inactive) each time.

`C/C=C/C[C@@H](C)[C@@H](O)[C@H]1C(=O)N[C@@H](CC)C(=O)N(C)CC(=O)N(C)[C@@H](CC(C)C)C(=O)N[C@@H](C(C)C)C(=O)N(C)[C@@H](CC(C)C)C(=O)N[C@@H](C)C(=O)N[C@H](C)C(=O)N(C)[C@@H](CC(C)C)C(=O)N(C)[C@@H](CC(C)C)C(=O)N(C)[C@@H](C(C)C)C(=O)N1C` [CYCLOSPORINE]: the GI50 in assay [16] is 4.95 µM (inactive); in assay [1], 12.8 µM (inactive); in assay [3], 5.24 µM (inactive); in assay [4], 2.98 µM (inactive); in assay [5], 3.99 µM (inactive); in assay [6], 2.15 µM (inactive). Also, the GI50 is 7.66 µM (inactive) in [7]; 4.65 µM (inactive) in assay [8]; 2.61 µM (inactive) in assay [9]; 4.48 µM in assay [10]; 2.48 µM (inactive) in assay [11]; 3.85 µM (inactive) in assay [12]. The GI50 in [13] was 3.8 µM (inactive); in assay [14], 7.21 µM (inactive); in assay [15] it was 7.45 µM (inactive).
